# Assay results: ChEMBL document CHEMBL1201862, “PubChem BioAssay data set” (2004)
# The source made the active and inactive calls. Cut-off read from the data, not from the text of the source, for most assays here: actives have a measured EC50 and inactives only a lower limit.
# Experiments:
# BJ [1] = assay: cytotoxicity toward BJ-TERT fibroblasts, dose response, cell-based, RAS-independent, luminescence (AID 1933); format: functional; conditions: Homo sapiens
# [2] = cytotoxicity toward DRD oncogenic fibroblasts, dose response, cell-based, non-viral oncogenic, luminescence (AID 1934); format: functional; conditions: Homo sapiens
# BJ [3] = assay: cytotoxicity toward BJ-TERT-LT-ST fibroblasts, dose response, cell-based, RAS-independent, luminescence (AID 1935); format: functional; conditions: Homo sapiens;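 note: BJ fibroblasts immortalized with TERT plus LT and ST oncogenes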
# Phospholipase A2 = Phospholipase A2 (Homo sapiens, UniProt P04054); assay: PLA2 enzyme inhibitors, dose response, counter-screen for ATG4B inhibitor project, biochemical, set 2 (AID 588586); format: functional
# Cysteine protease ATG4B = biological target: T1, Cysteine protease ATG4B (Homo sapiens, UniProt Q9Y4P1); assay: ATG4B protease inhibitors, dose response, biochemical, fluorescence, set 2 (AID 588584); format: functional
# T1 sequence (Q9Y4P1 whole entry): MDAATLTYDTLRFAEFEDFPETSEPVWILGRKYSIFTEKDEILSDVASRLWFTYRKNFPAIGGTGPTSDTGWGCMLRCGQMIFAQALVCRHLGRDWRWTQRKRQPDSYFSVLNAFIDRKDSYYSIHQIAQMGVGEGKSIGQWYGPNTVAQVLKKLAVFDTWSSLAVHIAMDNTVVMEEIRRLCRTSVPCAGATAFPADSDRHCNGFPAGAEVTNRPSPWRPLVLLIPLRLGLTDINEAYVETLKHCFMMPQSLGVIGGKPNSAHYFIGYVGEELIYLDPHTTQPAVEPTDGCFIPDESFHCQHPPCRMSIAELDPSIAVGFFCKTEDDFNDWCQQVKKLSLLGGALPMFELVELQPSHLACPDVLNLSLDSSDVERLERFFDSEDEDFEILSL
# BJ [4] = assay: cells; format: functional, cell-based; conditions: Homo sapiens
# Escherichia coli [5] = assay: microbe, parasite or virus in culture
# Escherichia coli [6] = assay: microbe, parasite or virus in culture; remark: listed apart in the source
# Streptococcus = assay: Group A Streptococcus viability loss, dose response, counter-screen for streptokinase expression inhibitor project, luminescence, BacTiterGlo (AID 1915); format: functional, organism-based;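 note: potency for reduction of bacterial viability or growth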
# [7] = biological target: T2, Microphthalmia-associated transcription factor (Homo sapiens, UniProt O75030); assay: TRPM1 promoter luciferase signal decrease, dose response, MITF inhibitor project, cell-based, SK-MEL-5, cherry-picked, set 3 (AID 493073); format: functional
# T2 sequence (O75030 whole entry): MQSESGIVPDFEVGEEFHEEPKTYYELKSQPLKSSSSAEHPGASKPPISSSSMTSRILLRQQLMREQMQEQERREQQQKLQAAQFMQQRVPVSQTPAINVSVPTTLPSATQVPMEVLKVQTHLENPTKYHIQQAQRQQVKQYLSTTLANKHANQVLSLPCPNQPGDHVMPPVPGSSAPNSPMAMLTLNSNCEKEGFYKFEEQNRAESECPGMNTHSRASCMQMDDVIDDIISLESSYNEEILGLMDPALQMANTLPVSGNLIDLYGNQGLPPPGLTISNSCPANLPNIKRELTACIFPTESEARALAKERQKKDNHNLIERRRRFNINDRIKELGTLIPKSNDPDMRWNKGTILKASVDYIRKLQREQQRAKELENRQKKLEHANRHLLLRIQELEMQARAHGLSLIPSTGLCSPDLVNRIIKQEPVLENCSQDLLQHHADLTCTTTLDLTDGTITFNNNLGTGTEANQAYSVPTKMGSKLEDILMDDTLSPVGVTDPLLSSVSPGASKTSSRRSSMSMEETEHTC
# cells [8] = format: functional, cell-based
# [9] = Luminescence Cell-Based Dose Retest to Confirm Inhibitors of Cancer Stem Cells. [Related pubchem assays (depositor defined):AID2717, AID2721]; format: functional; conditions: Homo sapiens
# Cytochrome P450 2D6 = Cytochrome P450 2D6 (Homo sapiens, UniProt P10635);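 note: CYP2D6 member of a cytochrome P450 panel assay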
# [10] = test system: Streptococcus sp. 'group A'; assay: growth inhibition of control SK(-) GAS strain, dose response, counter-screen for streptokinase expression inhibitor project, luminescence, kanamycin, BacTiterGlo, confirmation (AID 1900); format: functional, organism-based
# [11] = NIH-3T3 fibroblast cytotoxicity, dose response, cytotoxicity control, cell-based, fluorescence, Alamar Blue, secondary assay (AID 2327); format: functional;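 note: NIH-3T3 mouse fibroblasts cultured with fluconazole at 8 µg/mL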
# [12] = biological target: ATP-dependent molecular chaperone HSP82 (Candida albicans (strain WO-1) (Yeast), UniProt C4YTQ8); assay: loss of DOC-induced GRE-beta-galactosidase reporter signal, dose response, Hsp90 inhibitor project, S. cerevisiae, luminescence (AID 2400); format: functional, cell-based;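 note: beta-galactosidase luminescence from glucocorticoid response element reporter as proxy for Hsp90 function; inhibitor potency where signal loss means Hsp90 inhibition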
# [13] = biological target: T3, Serine/threonine-protein phosphatase (Candida dubliniensis (strain CD36 / CBS 7987 / NCPF 3949 / NRRLY-17841) (Yeast), UniProt B9W6M3); assay: calcineurin pathway inhibitors in yeast reporter, dose response, S. cerevisiae, CDRE-lacZ, luminescence, secondary (AID 2388); format: functional, cell-based;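 note: yeast reporter cells carrying a calcineurin-responsive lacZ construct stimulated with calcium chloride; luminescent beta-galactosidase reporter signal in whole cells rather than isolated phosphatase activity; potency for inhibition where a drop in reporter signal means calcineurin blockade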
# T3 sequence (B9W6M3 whole entry): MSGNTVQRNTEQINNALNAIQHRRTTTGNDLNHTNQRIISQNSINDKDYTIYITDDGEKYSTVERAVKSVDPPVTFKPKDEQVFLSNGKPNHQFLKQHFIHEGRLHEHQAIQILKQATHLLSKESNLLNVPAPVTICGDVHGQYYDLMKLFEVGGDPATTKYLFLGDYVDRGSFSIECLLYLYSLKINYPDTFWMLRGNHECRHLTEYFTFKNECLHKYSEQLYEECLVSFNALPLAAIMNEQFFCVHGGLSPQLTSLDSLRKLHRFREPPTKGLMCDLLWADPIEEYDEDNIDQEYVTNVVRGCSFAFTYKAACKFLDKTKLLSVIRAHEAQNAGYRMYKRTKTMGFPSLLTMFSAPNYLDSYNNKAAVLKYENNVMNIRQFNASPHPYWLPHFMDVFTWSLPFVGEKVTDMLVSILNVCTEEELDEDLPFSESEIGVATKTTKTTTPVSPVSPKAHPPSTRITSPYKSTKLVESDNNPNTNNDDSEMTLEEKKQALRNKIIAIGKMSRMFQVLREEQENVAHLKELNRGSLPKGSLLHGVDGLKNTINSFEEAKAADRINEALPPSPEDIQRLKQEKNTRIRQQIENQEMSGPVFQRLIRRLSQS
# cells [14] = format: functional, cell-based; remark: listed apart in the source
# [15] = C. albicans growth with fluconazole, confirmation, fluorescence, retest (AID 2467); format: functional, cell-based
# INS1 = assay: beta cell apoptosis inhibitors, cytokine rescue, dose response, luminescence, retest (AID 449756); format: functional, cell-based; conditions: Rattus norvegicus;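 note: cell death triggered by IL-1 beta plus TNF-alpha plus IFN-gamma mixture; protective hits raise ATP signal compared with cytokine alone wells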
# Chain of Phospholipase A2 (P04054 whole entry): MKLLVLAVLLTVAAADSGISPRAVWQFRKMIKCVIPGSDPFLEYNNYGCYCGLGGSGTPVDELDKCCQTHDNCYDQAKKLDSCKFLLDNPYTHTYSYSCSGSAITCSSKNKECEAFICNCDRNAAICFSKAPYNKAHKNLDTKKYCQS
# Chain of ATP-dependent molecular chaperone HSP82 (C4YTQ8 whole entry): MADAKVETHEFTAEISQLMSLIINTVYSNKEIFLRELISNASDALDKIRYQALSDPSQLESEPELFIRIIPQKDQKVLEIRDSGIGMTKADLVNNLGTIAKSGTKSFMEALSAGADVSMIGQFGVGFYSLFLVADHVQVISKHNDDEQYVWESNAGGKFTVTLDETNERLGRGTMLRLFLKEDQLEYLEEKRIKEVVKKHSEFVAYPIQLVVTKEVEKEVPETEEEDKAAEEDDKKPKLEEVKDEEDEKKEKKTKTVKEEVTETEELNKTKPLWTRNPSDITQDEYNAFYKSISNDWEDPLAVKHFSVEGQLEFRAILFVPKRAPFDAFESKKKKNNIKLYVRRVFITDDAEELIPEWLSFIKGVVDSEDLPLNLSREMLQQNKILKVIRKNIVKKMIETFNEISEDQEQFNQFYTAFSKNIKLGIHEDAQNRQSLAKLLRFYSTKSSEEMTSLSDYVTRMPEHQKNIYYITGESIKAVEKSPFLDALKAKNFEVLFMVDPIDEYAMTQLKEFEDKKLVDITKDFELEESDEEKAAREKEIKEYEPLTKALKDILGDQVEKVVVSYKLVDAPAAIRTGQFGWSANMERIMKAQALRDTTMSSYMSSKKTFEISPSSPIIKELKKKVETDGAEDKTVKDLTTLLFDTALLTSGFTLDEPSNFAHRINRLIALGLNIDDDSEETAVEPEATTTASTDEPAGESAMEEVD
# Chain of Cytochrome P450 2D6 (P10635 whole entry): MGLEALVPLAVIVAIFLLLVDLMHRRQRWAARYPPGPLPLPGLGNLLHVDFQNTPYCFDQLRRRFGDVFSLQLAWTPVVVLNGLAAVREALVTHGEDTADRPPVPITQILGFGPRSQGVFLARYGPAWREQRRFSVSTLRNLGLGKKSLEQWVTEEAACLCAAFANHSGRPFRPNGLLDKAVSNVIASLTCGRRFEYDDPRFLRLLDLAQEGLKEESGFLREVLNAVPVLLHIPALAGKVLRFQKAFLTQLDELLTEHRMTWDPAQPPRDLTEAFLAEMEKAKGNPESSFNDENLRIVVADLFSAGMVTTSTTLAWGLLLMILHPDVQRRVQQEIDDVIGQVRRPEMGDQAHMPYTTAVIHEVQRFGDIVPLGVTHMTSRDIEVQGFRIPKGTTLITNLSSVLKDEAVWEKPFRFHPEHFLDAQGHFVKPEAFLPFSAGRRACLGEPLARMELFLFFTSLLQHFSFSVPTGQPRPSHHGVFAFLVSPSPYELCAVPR
structure (smiles),measurement,setting,value
CC1=Nc2cc(C(=O)NCc3ccco3)ccc2Sc2ccc(C)cc21,EC50,BJ [1],2.33 µM (inconclusive)
same,EC50,[2],2.73 µM (inconclusive)
same,EC50,BJ [3],1.95 µM (active)
same,IC50,Phospholipase A2,74.1 µM (inactive)
same,IC50,Cysteine protease ATG4B,77.5 µM (inactive)
same,EC50,BJ [4],2.76 µM (active)
COC(=O)c1c(NC(=O)C(=O)NCCCN2CCOCC2)sc2c1CCCC2,AC50,Escherichia coli [5],19.8 µM (active)
CC(C)Cc1ccc(CN2CCCC(NC(=O)Cn3cnnn3)C2)cc1 (configuration not stated),AC50,Escherichia coli [6],103 µM (active)
Cc1c(Cl)c([N+](=O)[O-])nn1Cc1ccc(C(=O)N/N=C\c2cc(Cl)ccc2O)o1,EC50,Streptococcus,2.38 µM (active)
same,AC50,[7],3.47 µM (active)
same,EC50,cells [8],9.68 µM (active)
same,AC50,[9],3.28 µM (active)
same,AC50,Cytochrome P450 2D6,11.2 µM (inconclusive)
same,EC50,[10],2.03 µM (active)
same,EC50,[11],> 160 µM (inactive)
same,IC50,Phospholipase A2,5.5 µM (active)
same,IC50,Cysteine protease ATG4B,21 µM (inactive)
same,EC50,[12],29.5 µM (active)
same,EC50,[13],> 180 µM (inactive)
same,EC50,cells [14],89 µM (active)
same,EC50,[15],0.754 µM (active)
same,AC50,INS1,1.67 µM (active)
